Results from publication PMC7724630, “Improving the Stability of EGFR Inhibitor Cobalt(III) Prodrugs” (Inorganic Chemistry, 2020).
Where “and” joins values, the source holds several entries; their conditions need not be identical. Identical values can stand only once. Like-named read-outs stand apart in the source and are kept apart here. Marks after values point to notes of the source that are not given here.

Experiments:
[1] = Overall stability constants of binary and ternary cobalt(II) complexes by pH-potentiometry; type: physicochemical; settings: for fraction of ligand coordinated to cobalt(II): 1:2:1 cobalt(II)-acac-ligand system, computed from stability constants; for log β [Co(II)A2B]0 ternary complex / log β [Co(II)AB2]+ ternary complex / log β [Co(II)AB]+ ternary complex: A = acac, B = MeEn or PhEn
Experimental: Following the determination of the stability constants for the binary complexes (Table 2), overall stability constants for the mixed-ligand complexes formed in the cobalt(II)–acac–MeEn and cobalt(II)–acac–PhEn ternary systems were calculated on the basis of pH-potentiometric titrations. Three types of complexes were formed, [CoAB]^+, [CoA2B], and [CoAB2]^+, where “A” denotes acac and “B” refers to MeEn or PhEn. Concentration distribution curves in Figure 5 were computed using the stability constants of the 1:2:1 cobalt(II)–acac–PhEn composition that corresponds to the reduced form of Co(II)(acac)2L^0. […] For the 1:2:1 cobalt(II)–acac–MeEn system, ∼11% are still coordinated to cobalt(II) at pH 7.4 (Figure S6). However, it has to be mentioned that these calculations were performed for 1 mM cobalt(II) (where the titrations were performed), and the amount of the intact ternary complex further decreases with lower concentrations [e.g., in the latter system at pH 7.4 and 0.1 mM cobalt(II), the coordinated MeEn fraction is only ∼2%].
(§1) For determination of the proton dissociation (Ka) and formation constants (β) pH-potentiometric measurements were carried out at 25 ± 0.1 °C and an ionic strength (I) of 0.10 M (KCl) to keep the activity coefficients constant. A carbonate-free KOH solution (0.10 M) was used for titrations. The exact concentrations of HCl and KOH were determined by pH-potentiometric titrations. A Metrohm-combined electrode (type 6.0234.100) connected to an Orion 710A pH-meter and a computer-controlled Methrom 665 Dosimat buret (increment, 1 μL; precision, 2 μL) were used for the pH-potentiometric measurements. […] The determined average water ionization constant (pKw = 13.76 ± 0.01) corresponds well to the literature data.[37] Titration points included in the calculations gave a reproducibility within 0.005 pH unit. Titrations were performed in the pH range of 2.0–11.5, and the initial volume of the samples was 10 mL. Binary systems contained 1 or 2 mM ligand, and metal:ligand ratios of 1:1, 1:2, 1:3, and 1:4 were used. In the ternary systems, the cobalt(II) concentration was 1 mM and the two types of ligands (A, acac, and B, MeEn, or PhEn) were varied as follows: 1:1:1, 1:2:1, 1:1:2, and 1:2:2 Co(II):A:B. The samples were degassed by bubbling purified argon through them for 10 min prior to the measurements, and argon was also passed over the solutions during the titrations.
The stoichiometry of the complexes and overall stability constants were established by the computer program Hyperquad2013.[53] For the general equilibrium β(MpLqHr) is defined as [drawing 2] 1 where M denotes the cobalt(II) ion and L the completely deprotonated ligand. The calculations were performed as reported in our previous work.[54]

[2] = Proton dissociation constants by pH-potentiometric titration; type: physicochemical; settings: pH-potentiometry, 25.0 °C, I = 0.1 M (KCl)
Source text: After reductive activation of the cobalt(III) prodrugs, it is essential to investigate whether the formed cobalt(II) complexes indeed can release the coordinated targeting ligand. For this reason, we selected two ternary systems as models to study the potential liberation of the (N,N) ligand from the mixed-ligand cobalt complex upon reduction. Thus, the aqueous stability of several cobalt(II) complexes was investigated under strictly anaerobic conditions. Due to the limited water solubility of cobalt(II) chloride complexes with L, model ligands with better solubility, namely, MeEn and PhEn, were used. First, deprotonation processes of the acetlyacetone (Hacac) and the fully protonated MeEn and PhEn ligands were followed at pH 2.0–11.5 (Table 2).
as §1

[3] = cited from earlier work
[4] = Cyclic voltammetry, cathodic peak potential Co(III)/Co(II); type: physicochemical; settings: 10 mM phosphate buffer pH 7.40, 0.1 M KCl, scan rate 30 mV/s, 1.5 mM complex
Experimental: As the reduction process is crucial for the activation of cobalt(III)-based prodrug systems, the redox properties of the complexes were investigated to elucidate the effects of ligand methylation at different positions. Cyclic voltammetry measurements were performed in aqueous solution at pH 7.40 (10 mM phosphate buffer with 0.1 M KCl). […] Also, at a much higher scan speed of 1000 mV/s, the redox processes were still completely irreversible (Figure S5).
The compounds were dissolved in 10 mM phosphate buffer (pH 7.40), with 0.1 M KCl as the supporting electrolyte, to obtain a final concentration of 1.5 mM. Electrochemical experiments were conducted on an EG&G PARC 273A potentiostat/galvanostat with scan rates of 30 and 1000 mV/s at room temperature. Argon was bubbled through the solution before every measurement to remove oxygen. A three-electrode configuration cell was used with a glassy carbon electrode as the working electrode, which was polished before every measurement. The reference electrode was Ag/AgCl/KCl (3.5 M), and the auxiliary electrode was a platinum wire. Electrodes were conditioned regularly in 1 M H2SO4 for 5–10 cycles between voltage limits of −1.0 and 1.0 V at a scan rate of 100 mV/s. The system was calibrated with 1.5 mM K3[Fe(CN)6] for every experiment. Redox potentials measured relative to the Ag/AgCl/KCl (3.5 M) reference electrode were converted for potentials against NHE by the addition of 0.205 V. Measurements were repeated at least three times, and the mean values were calculated.

A431 cancer cells [5] = experiment: MTT-based cytotoxicity assay under different O2 levels; type: cell-based, Human; settings: A431, 72 h
[6] = test system: EGFR phosphorylation at position Y1068 and ERK 1/2 in A431 cells; experiment: Western blot of EGFR signaling (pEGFR Y1068, pERK 1/2) after EGF stimulation; type: cell-based, Human; settings: A431 serum-starved, 2 h drug, EGF 50 ng/mL 10 min, normoxic
EGFR (ErbB1) = EGFR (ErbB1) (Homo sapiens, UniProt P00533); experiment: Cell-free kinase inhibition assay (ZLYTE, Select Screen); type: biochemical; settings: 10 μM ATP (10-fold excess of ATP), 1% DMSO
A431 cancer cells [7] = settings: cited from earlier work
[8] = I = 0.1 M NaClO4; cited from earlier work
[9] = 25.0 °C, I = 0.1 M (KCl), anaerobic
[10] = pH 7.0, NAD+/NADH or GSSG/GSH couple
[11] = Homo sapiens, A-431, 1% O2, read-out: IC50 hypoxia with 1% O2
[12] = Homo sapiens, A-431, 21% O2, read-out: IC50 normoxia

Sequence of EGFR (ErbB1) (P00533 25-1210): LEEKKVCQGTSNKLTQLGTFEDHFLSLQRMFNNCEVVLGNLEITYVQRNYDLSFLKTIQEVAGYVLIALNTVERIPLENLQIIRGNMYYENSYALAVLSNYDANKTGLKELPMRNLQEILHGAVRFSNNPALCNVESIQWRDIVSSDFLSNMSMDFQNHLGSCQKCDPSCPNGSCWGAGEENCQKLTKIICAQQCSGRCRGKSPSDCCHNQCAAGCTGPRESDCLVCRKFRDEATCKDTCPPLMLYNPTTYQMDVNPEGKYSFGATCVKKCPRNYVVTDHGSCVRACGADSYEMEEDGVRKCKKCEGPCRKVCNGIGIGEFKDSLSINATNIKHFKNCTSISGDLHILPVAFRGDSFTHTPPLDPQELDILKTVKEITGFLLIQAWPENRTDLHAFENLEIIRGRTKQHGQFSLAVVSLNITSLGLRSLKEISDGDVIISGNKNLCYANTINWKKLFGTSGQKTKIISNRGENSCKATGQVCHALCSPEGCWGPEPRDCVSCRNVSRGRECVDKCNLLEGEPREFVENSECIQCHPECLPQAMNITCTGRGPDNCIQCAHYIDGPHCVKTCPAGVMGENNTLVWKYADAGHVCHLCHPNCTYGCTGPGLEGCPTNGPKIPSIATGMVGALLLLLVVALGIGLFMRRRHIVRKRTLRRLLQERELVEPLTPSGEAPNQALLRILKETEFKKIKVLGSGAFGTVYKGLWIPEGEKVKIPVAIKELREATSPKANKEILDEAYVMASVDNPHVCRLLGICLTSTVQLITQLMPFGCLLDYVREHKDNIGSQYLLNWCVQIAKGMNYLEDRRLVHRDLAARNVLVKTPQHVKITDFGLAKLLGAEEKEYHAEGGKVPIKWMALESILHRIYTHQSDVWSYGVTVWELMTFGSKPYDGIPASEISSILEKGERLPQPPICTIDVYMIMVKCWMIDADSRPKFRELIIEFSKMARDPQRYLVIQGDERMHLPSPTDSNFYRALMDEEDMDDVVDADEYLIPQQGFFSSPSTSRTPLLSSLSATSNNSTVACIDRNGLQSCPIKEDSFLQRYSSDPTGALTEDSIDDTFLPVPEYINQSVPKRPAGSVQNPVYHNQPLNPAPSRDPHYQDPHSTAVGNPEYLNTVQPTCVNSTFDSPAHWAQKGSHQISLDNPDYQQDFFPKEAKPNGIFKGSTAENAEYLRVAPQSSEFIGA

Q: With `NCCNc1ccccc1` [PhEn, N-phenylethylenediamine] as the compound, how does the “fraction of ligand coordinated to cobalt(II)” value (shortened to “fraction of ligand coordinated”) ([1]; pH 7.4, 1 mM cobalt(II)) read?
A: < 1%

Q: And the “log β [Co(II)L2] binary complex” value [1, 9]?
A: 6.75 ± 0.09

Q: And the “log β [Co(II)L] binary complex” value [1, 9]?
A: 3.63 ± 0.05

Q: And the “log β [Co(II)A2B]0 ternary complex” value ([1]; 25.0 °C, I = 0.1 M (KCl))?
A: 12.08 ± 0.09

Q: And the “log β [Co(II)AB2]+ ternary complex” value ([1]; 25.0 °C, I = 0.1 M (KCl))?
A: 11.29 ± 0.13

Q: And the “log β [Co(II)AB]+ ternary complex” value ([1]; 25.0 °C, I = 0.1 M (KCl))?
A: 8.03 ± 0.15

Q: What about the pKa1 [2] of the same compound?
A: 1.85 ± 0.01 ^c

Q: And the pKa2 [2]?
A: 9.34 ± 0.01 ^c

Q: For `O=C1O[C@H]([C@@H](O)CO)C(O)=C1O` [AA, ascorbic acid], which “formal potential, higher values suggested by recent literature” value [3] is on record?
A: 0.35–0.50 V

Q: What about the formal potential ([3]; dehydro-L-ascorbate/AA at pH 7.0) of the same compound?
A: 0.06 V

Q: With `N[C@@H](CCC(=O)N[C@@H](CS)C(=O)NCC(=O)O)C(=O)O` [GSH, Glutathione] as the compound, how does the formal potential [3, 10] read?
A: −0.24 V

Q: With “Bis(2,4-pentanedionato) (Methyl-1,2-ethanediamine) Cobalt(III) Hexafluorophosphate [Co(acac)2MeEn^+]” as the compound, how does the “cathodic peak potential (Ec) vs NHE” value [4] read?
A: -152 mV

Q: Which IC50 (A431 cancer cells [5]; [11]) does the source give for `C#Cc1cccc(Nc2ncnc3cc(OCCOC)c(OCCOC)cc23)c1` [erlotinib, reference compound] here?
A: 14.4 ± 4 µM

Q: And the IC50 (A431 cancer cells [5]; [12])?
A: 13.3 ± 4.7 µM

Q: Which results are given for `CC(=O)[C-](C)C(C)=O.CC(=O)[C-](C)C(C)=O.CNCCNc1ccc2ncnc(Nc3cccc(Br)c3)c2c1.[Cl-].[Co+3]` [Co(Meacac)2MeL^+, Bis(3-methyl-2,4-pentanedionato) N^4-(3-Bromophenyl)-N^6-[2-(methylamino)ethyl]quinazoline-4,6-diamine Cobalt(III) Chloride]?
A: EGFR-inhibitory potential (pEGFR, pERK 1/2) [6]: distinctly weakened EGFR-inhibitory potential; cathodic peak potential (Ec) vs NHE [4]: 17 mV; increase in cytotoxicity at 0.1% O2 compared to normoxic conditions (A431 cancer cells [5]): 2.9 fold; IC50 (A431 cancer cells [5]; 0.1% O2, read-out: IC50 hypoxia with 0.1% O2): 19.9 ± 1 µM; IC50 (A431 cancer cells [5]; 1% O2, read-out: IC50 hypoxia with 1% O2): ~32 µM and 32 µM; IC50 (A431 cancer cells [5]; 5% O2, read-out: IC50 hypoxia with 5% O2): 55.2 ± 1.4 µM; IC50 (A431 cancer cells [5]; 21% O2, read-out: IC50 normoxia): 58.6 ± 4.4 µM

Q: What does the source list for `CNCCNc1ccc2ncnc(Nc3cccc(Br)c3)c2c1.Cl.Cl` [MeL, N^4-(3-Bromophenyl)-N^6-[2-(methylamino)ethyl]quinazoline-4,6-diamine Dihydrochloride]?
A: EGFR-inhibitory potential (pEGFR, pERK 1/2) [6]: potent EGFR inhibition; IC50 (EGFR (ErbB1)): 0.00041 µM; anticancer activity relative to L (A431 cancer cells [5]): approximately twice as effective as L; IC50 (A431 cancer cells [5]; Homo sapiens, A-431, 0.1% O2, read-out: IC50 hypoxia with 0.1% O2): 5.4 ± 0.8 µM; IC50 (A431 cancer cells [5]; [11]): 5.5 ± 0.4 µM; IC50 (A431 cancer cells [5]; Homo sapiens, A-431, 5% O2, read-out: IC50 hypoxia with 5% O2): 8.7 ± 1.2 µM; IC50 (A431 cancer cells [5]; [12]): 6.9 ± 1.8 µM

Q: With `CC(=O)C=C(C)[O-].CC(=O)C=C(C)[O-].NCCN.[Co+2]` [[Co(II)(acac)2en]] as the compound, how does the cytotoxic activity (A431 cancer cells [7]; A431 cells, both normoxia and hypoxia) read?
A: No significant cytotoxic activity

Q: Which cytotoxic activity (A431 cancer cells [7]) does the source give for `[Cl-].[Cl-].[Co+2]` [CoCl2] here?
A: No significant cytotoxic activity

Q: With “Bis(3-methyl-2,4-pentanedionato) (Methyl-1,2-ethanediamine) Cobalt(III) Hexafluorophosphate [Co(Meacac)2MeEn^+]” as the compound, how does the “cathodic peak potential (Ec) vs NHE” value [4] read?
A: -200 mV

Q: With `CNCCN` [MeEn, N-methylethylenediamine] as the compound, how does the “fraction of ligand coordinated” value ([1]; pH 7.4, 0.1 mM cobalt(II)) read?
A: ~2%

Q: And the “fraction of ligand coordinated” value ([1]; pH 7.4, 1 mM cobalt(II))?
A: ~11%

Q: And the “log β [Co(II)L2] binary complex” value [1, 9]?
A: 9.15 ± 0.02

Q: What about the “log β [Co(II)L3] binary complex” value [1, 9] of the same compound?
A: 12.94 ± 0.04

Q: And the “log β [Co(II)L] binary complex” value [1, 9]?
A: 5.26 ± 0.01

Q: And the “log β [Co(II)A2B]0 ternary complex” value ([1]; 25.0 °C, I = 0.1 M (KCl))?
A: 12.73 ± 0.09

Q: What about the “log β [Co(II)AB2]+ ternary complex” value ([1]; 25.0 °C, I = 0.1 M (KCl)) of the same compound?
A: 13.20 ± 0.12

Q: And the “log β [Co(II)AB]+ ternary complex” value ([1]; 25.0 °C, I = 0.1 M (KCl))?
A: 9.82 ± 0.05

Q: And the pKa1 [2]?
A: 7.04 ± 0.02

Q: What about the pKa2 [2] of the same compound?
A: 9.98 ± 0.01

Q: What does the source list for `CC(=O)CC(C)=O` [acac, acetylacetone]?
A: log β [Co(II)L2] binary complex [1, 9]: 8.66 ± 0.05 ^b; log β [Co(II)L] binary complex [1, 9]: 5.05 ± 0.02 ^b; pKa [8]: 8.82; pKa1 [2]: 8.80 ± 0.01 ^b

Q: With `NC(=O)C1=CN([C@@H]2O[C@H](COP(=O)(O)OP(=O)(O)OC[C@H]3O[C@@H](n4cnc5c(N)ncnc54)[C@H](O)[C@@H]3O)[C@@H](O)[C@H]2O)C=CC1` [NADH, reduced nicotinamide adenine dinucleotide] as the compound, how does the formal potential [3, 10] read?
A: −0.32 V
